Values of other authors in patent US20260335282A1, “NOVEL 3-ARYLIDENE-2-INDOLINONE DERIVATIVES FOR THERAPEUTIC USE” (ISTANBUL UNIVERSITESI REKTORLUGU, priority 2022, published 2026).

Experiments:
VEGFR-2 = settings: Wang et al. 2021; cited from earlier work
HUVEC cell line = settings: Wang et al. 2021; cited from earlier work
angiogenesis = settings: transgenic zebrafish, Wang et al. 2021; cited from earlier work
HT-29 and MKN-45 cells = settings: Wang et al. 2021; cited from earlier work

For `Cc1ccc(-n2cc(-c3ccc(/C=C4\C(=O)Nc5ccccc54)cc3)nn2)cc1` [III], the “inhibitory activity on VEGFR-2 vs sunitinib” value (VEGFR-2) is listed as “greater inhibitory activity on VEGFR-2”, the “toxicity to HUVEC vs sunitinib” value (HUVEC cell line) is listed as “less toxic to HUVEC cell line than sunitinib” and the “inhibitory effect on angiogenesis” value (angiogenesis) is listed as “confirmed in vivo”. The cytotoxicity vs sunitinib (HT-29 and MKN-45 cells) was “better cytotoxicity on HT-29 and MKN-45 cells”.
